Assay results: patent US20170119806A1, “[…] LACTONE DERIVATIVES AND METHODS OF MAKING AND USING THEREOF” (OHIO STATE INNOVATION FOUNDATION, priority 2014, published 2017)
“Also recorded” adds a separate entry of the source.

Key:
[1] = test system: NF-κB p65; experiment: Immunoblotting of p65 and p-p65 in NK cells; format: cell-based, human; details: 5 and 10 μM PL-C, 18 h
Protocol: (A) Purified primary human NK cells were treated with 5 and 10 μM PL-C for 18 h. The cells were harvested and lysed for immunoblotting using p65 and p-p65 Abs. β-Actin immunoblotting was included as the internal control. Data shown are for treatment with PL-C alone (top panel) or in combination with IL-12 (10 ng/mL) (middle panel) or IL-15 (100 ng/mL) (bottom panel) and are the representative plots of four donors with similar results. Numbers under each lane represent quantification of p-p65 or p65 via densitometry, after normalizing to β-actin. (B) NKL cells were treated, and data are presented as described in (A). Data from one of three independent experiments with similar results are shown. (C) Purified primary human NK (left panel) or NKL cells (right panel) were cotreated with 10 μM PL-C and IL-12 (10 ng/mL) in the presence or absence of the NF-κB inhibitor TPCK (10 μM) for 18 h. Supernatants were assayed for IFN-γ secretion by ELISA (top panel), and cells were harvested and lysed for immunoblotting of p-p65 (bottom panel). Representative data from one of three donors with the similar data (left panel) and the summary of three independent experiments with similar results (right panel) are shown. **p<0.01. Error bars represent SD.
Immunoblotting. Immunoblotting was performed as described previously (Yu J et al. Immunity 2006, 24, 575-590; Yu J et al. Blood 2010, 115, 274-281). […]

[2] = test system: CCD-112CoN normal human colon cells; experiment: Cytotoxicity against CCD-112CoN cells
Excerpt: Following a previous procedure (Still P C et al. J. Nat. Prod. 2013, 76, 243-249) and the method for screening cytotoxicity towards HT-29 cells mentioned above, the cytotoxicity of the samples was screened against CCD-112CoN normal human colon cells.

[3] = test system: human primary NK cells; experiment: IFN-γ production by NK cells (intracellular flow cytometry, ELISA); format: cell-based; details: 10 μM PL-C, 18 h
Protocol: (A) Chemical structure of PL-C (phyllanthusmin C, 4), (9) Healthy donor PBMCs (left panel) or enriched NK cells (right panel) were treated with DMSO vehicle control or 10 μM PL-C for 18 h in the presence of […] (10 ng/mL) or IL-15 (100 ng/mL). The cells were harvested and analyzed by intracellular flow cytometry to determine the frequency of IFN-γ^+ cells in CD56^+CD3^− NK cells (n=8 for PBMC and n=5 for enriched NK). (C) Highly purified (≧99.5%) human primary NK cells were treated with 10 μM PL-C for 18 h to determine the levels of IFN-γ secretion by ELISA. IFN-γ secretion from treatment with PL-C alone (left panel) or in combination with IL-12 (10 ng/mL, middle panel) or IL-15 (100 ng/mL, right panel) is shown. (D) Cells were treated as described in (C) and harvested at 12 h, IFNG mRNA expression was assessed by real-time RT-PCR, and the relative IFNG mRNA expression of each treatment was normalized to untreated vehicle control in the same donor. Data are shown as mean±SEM (n=6 in each treatment; error bars represent SEM). *p<0.05, **p<0.01, which denote statistical comparison between the two marked treatment groups (B-D). (E) Highly purified (≧99,5%) primary human NK cells were treated with 10 μM. PL-C in combination with various concentrations of IL-12 (10, 1, and 0.1 ng/mL) or IL-15 (100, 10, and 1 ng/mL) for 24 h to determine the levels of IFN-γ secretion. Representative data from one of three donors with the similar data are shown. *p<0.05, **p<0.01, which denote statistical comparison between the two marked treatment groups and are calculated from data of all tested donors. Error bars represent SD. […]
Isolation of PBMCs and NK cells. […] The purity of enriched NK cells was ≧80% assessed by flow cytometric analysis after staining with CD56-allophycocyanin and CD3-FITC Abs (BD Bio-sciences, San Jose, Calif.). […] The purity of magnetic bead-purified NK cells was ≧99.5%, as determined by the aforementioned flow cytometric analysis. […]

## COc1cc2c(OC3OCC(O)C(O)C3O)c3c(c(-c4ccc5c(c4)OCO5)c2cc1OC)C(=O)OC3 (centres unmarked) [Compound 4, Phyllanthusmin C]
[1]
  NF-κB p65 phosphorylation in primary NK and NKL cells: increased
[2]
  cytotoxicity toward CCD-112CoN human normal colon cells (in words): non-cytotoxic
[2]; read-out: IC50 values toward the CCD-112 CoN cells, Table 6
  IC50: > 100 µM
[3]; alone or with IL-12 (10 ng/mL) or IL-15 (100 ng/mL), listed as PL-C
  IFN-γ production/secretion by human NK cells: enhanced IFN-γ production; also recorded: can induce NK cell IFN-γ production; also recorded: induced NK cell secretion of IFN-γ even in the absence IL-12 or IL-15; also recorded: enhanced NK cell IFN-γ secretion in the presence of IL-12 or IL-15 stimulation; also recorded: enhanced by PL-C
[3]; ligands 1 μg/mL, IL-12 (10 ng/mL)
  IFN-γ production induced by Pam3CSK4 or FSL-1 in NK cells: enhanced IFN-γ production
